Here are results for 13 molecules from publication PMC3614987, “Exploring the Chemical Space around 8-Mercaptoguanine as a Route to New Inhibitors of the Folate Biosynthesis Enzyme HPPK” (PLoS ONE, 2013).

Each structure is given as a SMILES string. Entries after “also recorded” stand apart in the source; their conditions may differ. Like-named read-outs stand apart in the source and are kept apart here.

The target of data set [1] is T1, SaHPPK (Staphylococcus aureus, UniProt A0A0H3JXR3). The experiment in a line: SPR binding to SaHPPK. The source says:
Initially, the binding of each of the test compounds to SaHPPK was quantitatively assessed using SPR (Fig. S1, S2). […] Moreover, all sensorgrams (Fig. S1 and S2) were of high quality and consistent with near perfect 1∶1 stoichiometric binding of analogues. Table 1 lists the estimated equilibrium dissociation constants (KD). […] This supports the hypothesis that the 8-mercapto group of 8-MG aids binding through the formation of one or more favorable interactions with SaHPPK.
All SPR binding experiments were performed as described previously. The only difference was the use of a sulfhydryl reactive maleimide-activated biotin derivative (Thermo Scientific, 1-biotinamido-4-(4′-[maleimidoethylcyclohexane]-carboxamido)butane. The maleimide-activated biotin was attached to the exposed surface cysteine residue of SaHPPK according to manufacturer’s instructions. The resulting site-specific biotinylated protein was immobilized onto the sensor chip surface using the Biotin capture kit (GE Healthcare). All analogues were serially diluted (either 2- or 3-fold from 126 µM down to 1.5 µM) in SPR binding buffer (50 mM HEPES, 150 mMNaCl, 1 mM TCEP, 0.05% (v/v) Tween-20, 10 mM MgCl2, 5% (v/v) DMSO, pH 8.0) and injected for 30 sec contact time at 60 µL/min and then allowed to dissociate for 60 sec. Binding sensorgrams were processed using the Scrubber (version 2c, BioLogic Software, Campbell, Australia). To determine the binding affinity (equilibrium dissociation constant; KD), responses at equilibrium for each compound were fit to a 1∶1 steady state affinity model available within Scrubber.

For data set [2], the target named is T1, SaHPPK. The data set is described as follows: ITC binding to SaHPPK. The settings on record: 298 K; for ΔG: calculated as -RT.lnKa; for TΔS: calculated using ΔG = ΔH - TΔS; for Kd: read-out: K D ITC. The procedure:
To corroborate the ligand binding affinities determined by SPR, and to determine the enthalpic and entropic contributions to the free energy of binding, ITC experiments were performed for selected compounds (21a and 21c–21e) (Table 2, Fig. S3). […] To investigate the factors contributing to the free energy of binding, we solved the structure of SaHPPK in complex with 21a.
Experiments were performed using an iTC200 instrument (MicroCal) at 298 K, with the ligands titrated into solutions of SaHPPK using 18×2.2 µL injections. Data were fitted using Origin software to yield the thermodynamic parameters, ΔH, KD and N (the binding stoichiometry), assuming a cell volume of 0.2 mL. These were then used to calculate the Gibb’s free energy of binding, ΔG (-RT.lnK a), and entropy of binding, ΔS (using ΔG = ΔH - TΔS). A stock solution of SaHPPK was dialyzed overnight into 50 mM HEPES, 1 mM TCEP, 10 mM MgCl2, pH 8.0 buffer with the addition of 5% DMSO (v/v) prior to running the experiment. For titrations with compounds 21a–e, SaHPPK was typically at 30 µM and the ligand stocks were at 1–1.5 mM dissolved in the above buffer then diluted into more of the same buffer. There was no apparent issue with limited solubility of 21a–c compromising either the stock solutions or the injected concentrations.

The target of another data set is HPPK. Also noted: method as in PMID 10751386, PMID 12093297, PMID 11311059, PMID 10825540, PMID 22169600. The settings on record: ATP binds prior to the substrate; cited from earlier work.
In data set [3] the target is T1, SaHPPK. Also noted: method as in Chhabra et al PlosONE 2012. The settings on record: ITC; ref Chhabra et al PlosONE 2012; cited from earlier work. In general terms: ITC needs no label: the signal is the heat of the interaction.
The target of data set [4] is T1, SaHPPK. Also noted: method as in PMID 22276115. The settings on record: SPR and ITC; cited from earlier work.
The target in data set [5] is T1, SaHPPK. Also noted: method as in PMID 22276115. The conditions noted are these: inhibition of the S. aureus enzyme; cited from earlier work.
Data set [6] deals with T1, SaHPPK. The data set is described as follows: 2D 15N NMR titration of 15N-labelled SaHPPK. It counts as binding. The method, then:
^15N-labelled protein samples for NMR spectroscopy were prepared as described. 2D soFast ^15N HMQC [43] NMR experiments were recorded on a Varian Inova 600 MHz NMR spectrometer equipped with a cryoprobe and Z axis gradient on samples of ∼100 µM ^15N-labelled SaHPPK dissolved in 50 mM HEPES buffer (pH 8.0, 90% H2O 10% D2O, 1% sorbitol) by titrating in aliquots from a 25 mM stock of 21a dissolved in DMSO-D6.

In data set [7] the target is T1, SaHPPK. The settings on record: cofactor analogue; no reference given; cited from earlier work.
[8] abbreviates: SPR, in the presence of 10 mM Mg2+, 293 K, read-out: K D a.
Where [9] appears, read: SPR, in the presence of 10 mM Mg2+/1 mM ATP, 293 K, read-out: K D b.
[10] abbreviates: SPR, in the presence of 10 mM Mg2+, 293 K.

T1 sequence (A0A0H3JXR3 entry or part of it): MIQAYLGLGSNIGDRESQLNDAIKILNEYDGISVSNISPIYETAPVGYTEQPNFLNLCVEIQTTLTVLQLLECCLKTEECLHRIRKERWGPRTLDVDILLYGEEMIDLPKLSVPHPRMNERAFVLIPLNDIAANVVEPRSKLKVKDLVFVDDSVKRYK

Consider `N=C(N)NCCn1c(S)nc2nc(N)[nH]c(=O)c21` [21e, 7-(2-Guanidinoethyl)-8-mercaptoguanine], for which the melting point was 256 to 262 °C (dec.). The “K D b” value on SaHPPK [1] (SPR, in the presence of 10 mM Mg2+/1 mM ATP, 293 K) is “No binding”. Moreover, the Kd on SaHPPK [1] (setting [8]) was found to be 30 ± 4 µM. Moreover, on SaHPPK [2], the “N (binding stoichiometry)” value is given as 1.4±0.02, the ΔH is -4.3 ± 0.1 kcal/mol, the ΔG was -6.0 ± 0.1 kcal/mol and the TΔS was 1.7 ± 0.2 kcal/mol. In addition, the Kd on SaHPPK [2] amounted to 35.1 ± 4.8 µM.

`Nc1ncnc2c1ncn2[C@@H]1O[C@H](COP(=O)(O)OP(=O)(O)OP(=O)(O)O)[C@@H](O)[C@H]1O` [ATP]: the Kd on HPPK is 2.6 to 4.5 µM.

`NCCCn1c(S)nc2nc(N)[nH]c(=O)c21` [21d, 7-(3-Aminopropyl)-8-mercaptoguanine]: the melting point was 239 to 243 °C (dec.). Further, at SaHPPK [1] (setting [9]), the Kd is 121 ± 6 µM. Also, at SaHPPK [1] (setting [8]), the Kd worked out at 25.9 ± 2 µM. At SaHPPK [2], the “N (binding stoichiometry)” value stood at 1.3±0.05, the ΔH was -6.2 ± 0.4 kcal/mol, the ΔG is -6.0 ± 0.1 kcal/mol and the TΔS is -0.2 ± 0.5 kcal/mol. At SaHPPK [2], the Kd was 34.3 ± 6.2 µM.

Take `Nc1nc2nc(S)[nH]c2c(=O)[nH]1` [8-MG, 8-mercaptoguanine]: on SaHPPK [3], the “N (binding stoichiometry)” value is 1.0±0.06, the TΔS was -12.9 ± 3.5 kcal/mol, the ΔG was -6.7 ± 0.2 kcal/mol and the ΔH was -19.6 ± 3.4 kcal/mol. In addition, the “binding relative to the cofactor (ATP / AMPCPP)” value at SaHPPK [4] is listed as “non-competitive”. In addition, the IC50 at SaHPPK [5] was around 41 µM.

Molecule `Nc1nc2nc(S)n(CCO)c2c(=O)[nH]1` [21a, 7-(2-Hydroxyethyl)-8-mercaptoguanine] returned a melting point above 300 °C. Further, on SaHPPK [1] (setting [9]), the Kd turned out to be 130 ± 10 µM. In addition, at SaHPPK [1] (setting [8]), the Kd came out at 12.3 ± 1 µM. Further, the Kd on SaHPPK [1] (approximate value, over 15 heavy atoms, read-out: K D (ligand efficiency comparison)) was around 10 µM. The “binding relative to the cofactor (ATP / AMPCPP)” value on SaHPPK [6] (NMR (and SPR), saturating AMPCPP 1 mM, 10 mM magnesium) was “competitive binding with the ATP cofactor; also recorded: competitive with AMPCPP”. Also, the “magnesium dependence of binding” value at SaHPPK [6] (titration into apo and magnesium-loaded SaHPPK) is on record as “not magnesium-dependent”. Moreover, on SaHPPK [2], the “N (binding stoichiometry)” value was 0.8±0.10, the ΔH is -10.5 ± 0.6 kcal/mol, the ΔG is -6.4 ± 0.1 kcal/mol and the TΔS is -4.1 ± 0.5 kcal/mol. At SaHPPK [2], the Kd came out at 16.7 ± 3.5 µM.

Take `CNc1nc2nc(N)[nH]c(=O)c2[nH]1` [10a, 8-(Methylamino)guanine]: the melting point was 252 to 257 °C (dec.). For the same molecule, the Kd at SaHPPK [1] (setting [9]) was 108 ± 5 µM. Moreover, on SaHPPK [1] (setting [10]), the “K D a” value is recorded as “did not bind; also recorded: No binding”.

In the case of `NCCn1c(S)nc2nc(N)[nH]c(=O)c21` [21c, 7-(2-Aminoethyl)-8-mercaptoguanine], the melting point is 280 to 287 °C (dec.). Also, the Kd at SaHPPK [1] (setting [9]) was 160 ± 20 µM. Further, at SaHPPK [1] (setting [8]), the Kd is 26.4 ± 3 µM. On SaHPPK [2], the “N (binding stoichiometry)” value came to 1.2±0.02, the ΔH is -5.8 ± 0.1 kcal/mol, the ΔG was -6.2 ± 0.1 kcal/mol and the TΔS was 0.4 ± 0.2 kcal/mol. Moreover, the Kd on SaHPPK [2] came out at 22.4 ± 2 µM.

For the molecule `Nc1nc2nc(S)n(CC(=O)O)c2c(=O)[nH]1` [21b, 2-(8-Mercaptoguanin-7-yl)acetic acid], the melting point was 247 to 253 °C (dec.). Moreover, the Kd at SaHPPK [1] (setting [9]) amounted to 140 ± 4 µM. The “K D a” value at SaHPPK [1] (setting [10]) was “did not bind; also recorded: No binding”.

As for `Nc1nc2c(nc(S)n2CCc2ccccc2)c(=O)[nH]1` [15d, 8-Mercapto-9-phenethylguanine], the melting point is 291 to 295 °C (dec.). The Kd at SaHPPK [1] (setting [9]) was 510 ± 20 µM. The Kd at SaHPPK [1] (setting [8]) amounted to 145 ± 4 µM.

Turning to `CCn1c(S)nc2c(=O)[nH]c(N)nc21` [15b, 8-Mercapto-9-ethylguanine], the melting point was 240 to 244 °C (dec.). For the same molecule, the Kd on SaHPPK [1] (setting [9]) turned out to be 340 ± 10 µM. Moreover, the Kd at SaHPPK [1] (setting [8]) amounted to 190 ± 10 µM.

For the molecule `Nc1nc2c(nc(S)n2Cc2ccccc2)c(=O)[nH]1` [15c, 8-Mercapto-9-benzylguanine], the melting point was > 300 °C (dec.). In addition, the Kd at SaHPPK [1] (setting [9]) is 201 ± 6 µM. The Kd at SaHPPK [1] (setting [8]) was 106 ± 2 µM.

As to `Cn1c(S)nc2c(=O)[nH]c(N)nc21` [15a], the figures for the Kd at SaHPPK [1] (setting [9]) and on SaHPPK [1] (setting [8]) were 410 ± 10 µM and 194 ± 5 µM, respectively.

As for `Nc1ncnc2c1ncn2[C@@H]1O[C@H](COP(=O)(O)CP(=O)(O)OP(=O)(O)O)[C@@H](O)[C@H]1O` [AMPCPP], the Kd at SaHPPK [7] was 3 µM.

The melting point is the temperature of the solid-liquid transition. In general, IC50 refers to the concentration that inhibits the measured activity by half.
